Laboratory results reported in ChEMBL document CHEMBL2177100, “Structural optimization and structure-activity relationships of N2-(4-(4-Methylpiperazin-1-yl)phenyl)-N8-phenyl-9H-purine-2,8-diamine derivatives, a new class of reversible kinase inhibitors targeting both EGFR-activating and resistance mutations” (J Med Chem, 2012).
pIC50: −log10 of the molar value. Active and inactive are the calls of the source. The rule behind the calls is not given here.

How the values were obtained:
[1] = Cytotoxicity against human HCC827 cells incubated for 72 hrs by MTT assay; assay type: functional, cell-based; settings: HCC827, 72 h
[2] = biological target: Rho-associated protein kinase 2 (Homo sapiens, UniProt O75116); assay: Inhibition of human recombinant ROCK2 by radiometric kinase assay
NCI-H1975 = assay: Antitumor activity against human NCI-H1975 cells xenografted in BALB/c mouse assessed as inhibition of tumor growth at 25 mg/kg, po qd; assay type: functional; settings: read-out: TGI
HCC827 [3] = assay: Antitumor activity against human HCC827 cells xenografted in BALB/c mouse assessed as complete tumor regression at 5 mg/kg, po qd measured within 15 days compound treatment; assay type: functional, organism-based; design: dose 5 mg/kg
Rattus norvegicus = assay: Volume of distribution at steady state in Sprague-Dawley rat at 20 mg/kg, po; assay type: ADME, organism-based; design: dose 20 mg/kg, route oral; settings: in vivo
[4] = AUC (0 to 24 hrs) in Sprague-Dawley rat at 20 mg/kg, po; assay type: ADME, organism-based; design: time < 24 hr, dose 20 mg/kg, route oral; settings: plasma
HCC827 [5] = assay: Antitumor activity against human HCC827 cells xenografted in BALB/c mouse assessed as reduction in Ki67 expression at 1 mg/kg/day, po for 3 days by immunohistochemistry; assay type: functional, organism-based
Mus musculus [6] = assay: Inhibition of EGFR phosphorylation in human NCI-H1975 cells xenografted in BALB/c mouse at 50 mg/kg/day, po for 10 days by immunohistochemistry; assay type: functional, organism-based
Mus musculus [7] = assay: Toxicity in human NCI-H1975 cells xenografted BALB/c mouse assessed as body weight loss at 50 mg/kg, po qd; assay type: organism-based; design: dose 50 mg/kg, route oral; settings: in vivo
HCC827 [8] = assay: Antitumor activity against human HCC827 cells xenografted in BALB/c mouse assessed as reduction tumor volume at 5 mg/kg, po qd; assay type: functional, organism-based; design: dose 5 mg/kg
HCT-116 = assay: Cytotoxicity against human HCT116 cells incubated for 72 hrs by MTT assay; assay type: functional, cell-based; settings: HCT-116, 72 h
PC-9 = assay: Cytotoxicity against human PC9 cells incubated for 72 hrs by MTT assay; assay type: functional, cell-based; settings: PC-9, 72 h
[9] = biological target: Mitogen-activated protein kinase 14 (Homo sapiens, UniProt Q16539); assay: Inhibition of human recombinant p38alpha by radiometric kinase assay
[10] = biological target: Serine/threonine-protein kinase WNK1 (Homo sapiens, UniProt Q9H4A3); assay: Inhibition of human recombinant WNK1 by radiometric kinase assay
[11] = biological target: Protein kinase C theta type (Homo sapiens, UniProt Q04759); assay: Inhibition of human recombinant PKCtheta by radiometric kinase assay
[12] = biological target: Protein kinase C alpha type (Homo sapiens, UniProt P17252); assay: Inhibition of human recombinant PKCalpha by radiometric kinase assay
[13] = biological target: Tyrosine-protein kinase JAK3 (Homo sapiens, UniProt P52333); assay: Inhibition of human recombinant JAK3 by radiometric kinase assay
[14] = biological target: Mitogen-activated protein kinase 1 (Homo sapiens, UniProt P28482); assay: Inhibition of human recombinant ERK2 by radiometric kinase assay
[15] = Inhibition of human recombinant CaMK2 by radiometric kinase assay
[16] = biological target: Mast/stem cell growth factor receptor Kit (Homo sapiens, UniProt P10721); assay: Inhibition of human recombinant KIT by radiometric kinase assay
[17] = biological target: ALK tyrosine kinase receptor (Homo sapiens, UniProt Q9UM73); assay: Inhibition of human recombinant ALK by radiometric kinase assay

Sequence of Protein kinase C theta type (Q04759 whole entry): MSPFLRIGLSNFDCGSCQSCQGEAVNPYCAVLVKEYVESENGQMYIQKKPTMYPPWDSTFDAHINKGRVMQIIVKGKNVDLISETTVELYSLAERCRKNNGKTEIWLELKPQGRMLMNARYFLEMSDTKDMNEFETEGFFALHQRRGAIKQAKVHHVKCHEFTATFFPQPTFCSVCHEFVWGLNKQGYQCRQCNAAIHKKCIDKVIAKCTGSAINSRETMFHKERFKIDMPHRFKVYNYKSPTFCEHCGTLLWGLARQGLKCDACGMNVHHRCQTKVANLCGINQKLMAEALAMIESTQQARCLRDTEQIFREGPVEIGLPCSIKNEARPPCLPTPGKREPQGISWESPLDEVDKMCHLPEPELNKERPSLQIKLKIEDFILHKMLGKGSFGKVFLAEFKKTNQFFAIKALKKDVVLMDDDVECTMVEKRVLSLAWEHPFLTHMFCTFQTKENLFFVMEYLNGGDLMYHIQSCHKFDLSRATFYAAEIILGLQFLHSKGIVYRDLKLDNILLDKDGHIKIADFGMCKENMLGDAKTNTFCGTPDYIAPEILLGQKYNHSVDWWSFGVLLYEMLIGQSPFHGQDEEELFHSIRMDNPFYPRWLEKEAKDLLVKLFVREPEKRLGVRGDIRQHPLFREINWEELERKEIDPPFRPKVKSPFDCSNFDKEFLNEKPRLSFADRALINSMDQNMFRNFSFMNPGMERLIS
Sequence of Mitogen-activated protein kinase 14 (Q16539 whole entry): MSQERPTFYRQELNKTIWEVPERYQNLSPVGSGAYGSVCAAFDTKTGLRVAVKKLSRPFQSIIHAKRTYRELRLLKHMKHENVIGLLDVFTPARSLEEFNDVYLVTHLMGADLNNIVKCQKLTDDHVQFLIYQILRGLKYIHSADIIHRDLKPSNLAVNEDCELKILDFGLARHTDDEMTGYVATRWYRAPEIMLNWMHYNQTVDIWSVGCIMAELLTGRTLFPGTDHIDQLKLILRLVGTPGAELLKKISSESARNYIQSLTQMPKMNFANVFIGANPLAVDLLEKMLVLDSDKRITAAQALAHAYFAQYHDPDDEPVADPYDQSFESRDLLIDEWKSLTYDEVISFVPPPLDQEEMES
Sequence of Serine/threonine-protein kinase WNK1 (Q9H4A3 whole entry): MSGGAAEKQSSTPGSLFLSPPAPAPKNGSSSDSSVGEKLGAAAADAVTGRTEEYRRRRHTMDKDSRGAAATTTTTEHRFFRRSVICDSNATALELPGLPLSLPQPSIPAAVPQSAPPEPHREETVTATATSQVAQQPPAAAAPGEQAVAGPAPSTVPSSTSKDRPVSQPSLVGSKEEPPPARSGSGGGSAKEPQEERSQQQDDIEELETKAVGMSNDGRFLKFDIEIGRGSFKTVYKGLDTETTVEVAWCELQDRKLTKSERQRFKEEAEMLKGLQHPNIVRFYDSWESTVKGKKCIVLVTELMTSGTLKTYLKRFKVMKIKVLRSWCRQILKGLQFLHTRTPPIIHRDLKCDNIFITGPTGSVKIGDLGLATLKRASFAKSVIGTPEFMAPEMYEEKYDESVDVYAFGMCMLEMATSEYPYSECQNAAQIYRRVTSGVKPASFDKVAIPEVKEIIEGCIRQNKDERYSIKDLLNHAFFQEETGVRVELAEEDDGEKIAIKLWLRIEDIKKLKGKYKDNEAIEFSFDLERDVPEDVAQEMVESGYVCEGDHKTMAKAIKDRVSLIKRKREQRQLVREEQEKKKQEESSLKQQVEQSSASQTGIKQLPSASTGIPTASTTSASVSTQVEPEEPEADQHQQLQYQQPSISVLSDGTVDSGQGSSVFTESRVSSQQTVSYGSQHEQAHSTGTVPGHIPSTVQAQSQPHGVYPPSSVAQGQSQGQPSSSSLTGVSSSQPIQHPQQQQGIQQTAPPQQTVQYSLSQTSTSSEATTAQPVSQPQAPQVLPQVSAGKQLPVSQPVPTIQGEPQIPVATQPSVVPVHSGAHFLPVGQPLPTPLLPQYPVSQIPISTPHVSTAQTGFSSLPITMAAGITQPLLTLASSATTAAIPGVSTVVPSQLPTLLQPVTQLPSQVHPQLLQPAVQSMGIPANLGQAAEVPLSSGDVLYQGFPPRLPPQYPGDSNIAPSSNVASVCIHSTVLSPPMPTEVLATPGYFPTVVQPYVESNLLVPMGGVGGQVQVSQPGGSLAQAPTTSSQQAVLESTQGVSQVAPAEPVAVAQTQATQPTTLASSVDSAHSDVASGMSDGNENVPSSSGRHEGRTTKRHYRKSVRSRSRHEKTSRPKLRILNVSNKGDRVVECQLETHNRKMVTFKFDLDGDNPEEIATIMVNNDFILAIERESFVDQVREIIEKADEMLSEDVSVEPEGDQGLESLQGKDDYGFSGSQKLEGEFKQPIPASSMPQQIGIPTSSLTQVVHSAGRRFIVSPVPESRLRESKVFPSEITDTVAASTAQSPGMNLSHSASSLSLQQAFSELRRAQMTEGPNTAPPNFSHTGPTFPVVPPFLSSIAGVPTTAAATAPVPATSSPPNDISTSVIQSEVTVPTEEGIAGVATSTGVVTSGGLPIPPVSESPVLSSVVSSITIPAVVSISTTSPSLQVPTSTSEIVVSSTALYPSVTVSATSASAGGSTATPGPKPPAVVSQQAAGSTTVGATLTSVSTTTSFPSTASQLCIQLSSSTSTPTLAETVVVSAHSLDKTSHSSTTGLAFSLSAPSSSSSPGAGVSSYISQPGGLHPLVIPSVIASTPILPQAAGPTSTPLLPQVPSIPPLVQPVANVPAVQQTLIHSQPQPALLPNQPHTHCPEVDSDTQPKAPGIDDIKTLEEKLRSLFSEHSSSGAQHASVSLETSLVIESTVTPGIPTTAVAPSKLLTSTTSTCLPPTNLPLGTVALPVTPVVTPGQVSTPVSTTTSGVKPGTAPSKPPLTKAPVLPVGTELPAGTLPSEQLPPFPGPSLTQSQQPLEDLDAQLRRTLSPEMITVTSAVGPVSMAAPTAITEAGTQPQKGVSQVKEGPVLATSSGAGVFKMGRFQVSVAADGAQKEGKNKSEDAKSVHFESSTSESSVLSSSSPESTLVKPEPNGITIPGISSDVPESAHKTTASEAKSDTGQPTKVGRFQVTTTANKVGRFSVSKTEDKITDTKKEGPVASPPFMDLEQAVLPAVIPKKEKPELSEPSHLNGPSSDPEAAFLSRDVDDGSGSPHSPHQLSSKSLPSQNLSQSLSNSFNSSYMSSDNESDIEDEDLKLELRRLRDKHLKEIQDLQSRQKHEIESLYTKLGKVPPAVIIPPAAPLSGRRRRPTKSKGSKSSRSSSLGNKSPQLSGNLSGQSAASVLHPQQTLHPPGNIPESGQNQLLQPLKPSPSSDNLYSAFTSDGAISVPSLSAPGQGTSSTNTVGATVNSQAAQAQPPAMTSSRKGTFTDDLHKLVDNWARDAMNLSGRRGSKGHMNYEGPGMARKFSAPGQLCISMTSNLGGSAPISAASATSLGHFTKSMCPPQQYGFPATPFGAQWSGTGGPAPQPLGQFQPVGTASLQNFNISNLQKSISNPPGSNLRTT
Sequence of Mitogen-activated protein kinase 1 (P28482 whole entry): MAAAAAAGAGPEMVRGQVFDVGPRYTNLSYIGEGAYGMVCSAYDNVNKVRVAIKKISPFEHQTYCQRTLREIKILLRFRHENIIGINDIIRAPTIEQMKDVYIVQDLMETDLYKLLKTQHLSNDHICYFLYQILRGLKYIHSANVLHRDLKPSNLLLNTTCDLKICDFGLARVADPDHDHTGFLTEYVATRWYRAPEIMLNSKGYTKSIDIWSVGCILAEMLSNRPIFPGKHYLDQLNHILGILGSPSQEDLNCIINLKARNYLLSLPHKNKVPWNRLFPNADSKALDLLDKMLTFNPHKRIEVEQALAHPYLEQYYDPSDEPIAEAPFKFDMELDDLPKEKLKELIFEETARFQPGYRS

pIC50 [2]: < 5.00 | Vdss (Rattus norvegicus): 63.35 L/kg | AUC(0-t) at 24 h [4]: 2140 ng·h/mL | pIC50 [9]: 6.64 | pIC50 [10]: < 5.00 | pIC50 [11]: 5.44 | pIC50 [12]: 5.17 | pIC50 [13]: 5.59 | pIC50 [14]: < 5.00 | pIC50 [15]: < 5.00 | pIC50 [16]: 6.27 | pIC50 [17]: 5.64
Compound: CN1CCN(c2ccc(Nc3ncc4nc(Nc5ccccc5)n(C5CCCC5)c4n3)cc2)CC1
pIC50 [1]: > 11.00 | inhibition in vivo at 25 mg/kg (NCI-H1975): 35% | Activity (HCC827 [3]): Active | Activity (HCC827 [5]): Active | inhibition (Mus musculus [6]): Active | Activity (Mus musculus [7]): 4.4% | TGI (HCC827 [8]): Active | pIC50 (HCT-116): 5.52 | pIC50 (PC-9): 9.66
